# Test results from patent US9149472B2, “Controlled release compositions for treatment of cognitive, emotional and mental ailments and disorders” (priority 2004, dated 2015).
# Columns and labels:
# [1] = system: mild permanent cognitive and short term memory loss; assay: Case study Patient 1: mild permanent cognitive and short term memory loss after mold exposure; assay type: in vivo, human
# Description: A case study of a patient having a long history of allergies was performed.
# A typical dosage of the Singulair® is about 10 mg.
# A 10 mg tablet can be taken orally upon awakening. […] In a typical implementation, the patient can take another 10 mg dose in about two hours after the initial dose. […] Similar booster dosages can be taken at 3-4 hour intervals throughout the day. […] The Singulair® product typically recommends 10 mg per day.
# In another embodiment, a zafirlukast product such as Accolate® and Vanticon® can be implemented. In one implementation, a 20 mg oral dose can be taken upon awakening followed by a 10 mg dose after 2 hours and a 10 mg repeated dose in 4 hours and a final dose of 20 mg another 4 hours later. […] The Accolate® recommended dosage is 20 mg in the morning and evening.
# [2] = system: decreased concentration and focus, memory recall and forgetfulness issues; assay: Case study Patient 4: person with decreased concentration, focus and memory recall, plus depression and anxiety; assay type: in vivo, human; conditions: 10 mg in the morning along with an antidepressant, additional 10 mg about every 2 hours during waking hours
# Text: A person with symptoms of decreased concentration and focus along with memory recall and forgetfulness issues. The patient was also diagnosed with depression and anxiety.
# [3] = system: symptoms of cognitive ailments; assay: Case study Patient 6: person with cognitive ailments, single morning dose; assay type: in vivo, human
# [4] = system: symptoms of cognitive ailments; conditions: Patient 3
# [5] = system: memory loss, cognitive, emotional ailments
# Description: In most cases, treatment of these ailments requires multiple dosages of 5 mg to 20 mg over the course of the day.
# [6] = system: mild symptoms of forgetfulness; assay: Case study Patient 2: person with mild symptoms of forgetfulness
# [7] = system: forgetfulness and problems with word recall; assay: Case study Patient 5: person with forgetfulness and word recall problems
smiles,measurement,setting,value
"COc1cc(C(=O)NS(=O)(=O)c2ccccc2C)ccc1Cc1cn(C)c2ccc(NC(=O)OC3CCCC3)cc12 [Accolate®, zafirlukast]",focus and disposition,"[1]; Patient 1, oral 20 mg upon awakening, 10 mg after 2 hours, 10 mg after 4 hours, 20 mg 4 hours later, highest daily dosage 80 mg",heightened focus but results in a less “wired” disposition
CC(C)(O)c1ccccc1CC[C@@H](SCC1(CC(=O)[O-])CC1)c1cccc(/C=C/c2ccc3ccc(Cl)cc3n2)c1.[Na+] [montelukast sodium],time to relief / marked improvement after the initial higher dosage,"[1]; Patient 1, 20-30 mg upon waking",30 to 45 min
same,apathy,"[1]; Patient 1, about 20-30 mg",marked decrease in apathy
same,sense of humor,"[1]; Patient 1, about 20-30 mg",increase in sense of humor
same,"cognitive, mental and emotional improvement","[1]; Patient 1, about 20-30 mg (2-3 times the typical dosage)","marked cognitive, mental and emotional improvement"
same,effect of additional doses on relief,"[1]; Patient 1, additional 10 mg dose every four hours",continues the relief
same,time to return of symptoms after ceasing the dosage,"[1]; Patient 1, after the dosage is ceased",≤ 24 h
same,cognitive effect when taking the medication,"[1]; Patient 1, as prescribed for allergies, typical dosage about 10 mg",cognitive improvement
same,mental state under mega-dosing,"[1]; booster dosages of 5 mg about every 2 hours, maximum 40 mg in one day",very talkative mental states and highly sensitive mental alertness
same,symptoms,[2],significant improvement in symptoms
same,mental clarity and mood,[3]; 50 mg once upon rising in the morning,improved mental clarity in the morning and better mood throughout the day
same,mental clarity and mood,[3]; 80 mg once upon rising in the morning,improved mental clarity in the morning and better mood throughout the day
same,side effects,[4],No side effects noted
same,symptoms while on medication,"[4]; 10 mg in the morning, additional 10 mg about every 2 hours during waking hours",significant improvement in symptoms
same,mood with large immediate release dosages,[5]; immediate release dosages larger than 30 mg,improved mood
same,effect on ailments (overall finding),[5]; in most cases multiple dosages of 5 mg to 20 mg over the day,"alleviate and treat memory loss, forgetfulness, apathy, emotional and cognitive ailments, and depression"
same,side effects,[6],No side effects reported
same,time to improvement in symptoms after onset of medication use,"[6]; 20 mg in the morning, additional 10-20 mg about every 2 hours during waking hours",≤ 24 h
same,symptoms after stopping second course,[6]; after the five-day course was stopped,the symptoms returned again
same,time to recurrence of symptoms after discontinuation,[6]; stopped after over a week,≤ 24 h
same,symptoms during second course,"[6]; two weeks later, same regimen for five days",marked improvement in symptoms
same,other side effects,[7],No other side effects noted
same,time to improvement after initiation of the protocol,[7],≤ 24 h
same,memory and recall issues,"[7]; 10 mg in the morning, additional 10 mg about every 2 hours during waking hours, five days",significant improvement in memory and recall issues
same,sleep (side effect) at 6 doses daily,[7]; 6 doses of 10 mg daily,difficulty sleeping
same,time to recurrence of symptoms after discontinuation,[7]; discontinued after five days,24 to 48 h
same,sleep (side effect) at five doses daily,[7]; schedule reduced to five doses daily,the problem was resolved
